Experimental data reported in patent US11691984B2, “Compounds and methods for DCAF-mediated protein degradation” (The Scripps Research Institute, priority 2018, dated 2023).

Molecular target: T1, HA-DCAF16 and FLAG-FKBP12_NLS (Homo sapiens, UniProt P62942+Q9NXF7)
T1 construct: expressed in transfected cells; host or cells: HEK293T stably expressing FLAG-FKBP12_NLS, transiently transfected with HA-DCAF16 (pRK5)
Assay: Co-immunoprecipitation of HA-DCAF16 with FLAG-FKBP12_NLS (ternary complex) in HEK293T cells
Type: cell-based
Details: MG132 10 μM

T1 sequence (Q9NXF7 whole entry): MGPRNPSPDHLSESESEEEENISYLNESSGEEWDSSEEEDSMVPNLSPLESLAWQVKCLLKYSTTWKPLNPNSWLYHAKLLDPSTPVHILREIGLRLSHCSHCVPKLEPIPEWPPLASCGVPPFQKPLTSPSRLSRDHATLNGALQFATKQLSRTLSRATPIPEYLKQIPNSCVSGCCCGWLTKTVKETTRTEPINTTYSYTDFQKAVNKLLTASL
T1 sequence (P62942 2-108): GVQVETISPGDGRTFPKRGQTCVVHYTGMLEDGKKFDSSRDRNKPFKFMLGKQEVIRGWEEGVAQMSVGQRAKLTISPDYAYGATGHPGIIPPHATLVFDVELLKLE
T1 sequence (Q16531 whole entry partner): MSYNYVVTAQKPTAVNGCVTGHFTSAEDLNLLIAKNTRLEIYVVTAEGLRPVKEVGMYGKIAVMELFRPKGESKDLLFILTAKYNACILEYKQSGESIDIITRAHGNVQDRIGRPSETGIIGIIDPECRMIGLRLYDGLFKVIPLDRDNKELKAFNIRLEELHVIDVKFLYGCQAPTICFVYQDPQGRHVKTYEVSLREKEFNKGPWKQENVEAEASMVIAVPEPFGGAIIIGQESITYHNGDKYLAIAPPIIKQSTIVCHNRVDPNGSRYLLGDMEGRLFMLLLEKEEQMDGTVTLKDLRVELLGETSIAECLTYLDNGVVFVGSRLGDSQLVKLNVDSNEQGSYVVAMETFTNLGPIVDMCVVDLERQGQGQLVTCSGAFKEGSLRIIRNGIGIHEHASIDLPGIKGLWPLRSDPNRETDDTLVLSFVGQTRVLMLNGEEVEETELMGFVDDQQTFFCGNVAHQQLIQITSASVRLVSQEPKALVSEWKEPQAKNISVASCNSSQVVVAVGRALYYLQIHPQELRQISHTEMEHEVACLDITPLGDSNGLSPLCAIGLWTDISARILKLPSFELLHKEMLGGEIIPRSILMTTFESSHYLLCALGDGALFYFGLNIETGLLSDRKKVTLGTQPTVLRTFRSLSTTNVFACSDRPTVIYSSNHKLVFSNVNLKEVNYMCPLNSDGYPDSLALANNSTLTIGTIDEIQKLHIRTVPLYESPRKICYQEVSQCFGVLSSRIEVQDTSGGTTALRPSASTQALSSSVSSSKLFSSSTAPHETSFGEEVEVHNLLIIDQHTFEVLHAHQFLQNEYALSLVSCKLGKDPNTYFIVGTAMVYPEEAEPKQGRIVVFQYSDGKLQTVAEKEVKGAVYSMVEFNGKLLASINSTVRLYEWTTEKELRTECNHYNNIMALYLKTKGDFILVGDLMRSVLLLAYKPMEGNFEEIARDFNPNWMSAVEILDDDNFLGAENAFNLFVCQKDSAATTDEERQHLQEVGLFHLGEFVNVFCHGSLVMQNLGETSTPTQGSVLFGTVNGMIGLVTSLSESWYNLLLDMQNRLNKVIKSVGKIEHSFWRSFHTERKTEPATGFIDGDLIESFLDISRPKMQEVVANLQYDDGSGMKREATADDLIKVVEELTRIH

CCC(C)(C)C(=O)C(=O)N1CCCC[C@H]1C(=O)O[C@H](CCc1ccc(OC)c(OC)c1)c1cccc(NC(=O)CCOCCOCCNC(=O)COc2ccc3c(c2)CCCN3C(=O)CCl)c1 [KB02-SLF, (R)-1-(3-(3-(2-(2-(2-((1-(2-chloroacetyl)-1,2,3,4-tetrahydroquinolin-6-yl)oxy)acetamido)ethoxy)ethoxy)propanamido)phenyl)-3-(3,4-dimethoxyphenyl)propyl (S)-1-(3,3-dimethyl-2-oxopentanoyl)piperidine-2-carboxylate]
co-immunoprecipitation of HA-DCAF16 with FLAG-FKBP12_NLS (5 μM, 2 hours): HA-DCAF16 and DDB1 co-immunoprecipitated with FLAG-FKBP12_NLS
conversion of HA-DCAF16 to higher molecular weight (HMW) form (increasing concentrations of KB02-SLF, 2 h): Only a modest fraction of HA-DCAF16 was converted to this HMW
